Patent US8741836B2, “Polypeptides” (Novo Nordisk A/S, priority 2011, dated 2014)
Starred links: 1 amine or outer side, 2 acyl side, 3 side chain; linkers in the order of their positions; H or OH if unused. Positions of bridges follow the written chain, without caps; N, C: chain ends. Residues, ends and D or L forms follow the SMILES beside them. *: point of attachment. C20 diacid = O=C(O)CCCCCCCCCCCCCCCCCCC(=O)*; γGlu = O=C(O)[C@H](CCC(=O)[*:2])N[*:1]

Test: Assay (III) ThT fibrillation assay for physical stability
Format: physicochemical
Settings: pH 4.0
Procedure, shortened: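 Freshly prepared, pH-adjusted formulations with 1 μM ThT incubated at 37 °C under 960 rpm orbital shaking (1 mm), fluorescence (ex 444, em 485 nm) read every 20 min. […] Peptide content before and after measured by reverse-phase HPLC against pramlintide standard.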

Structure (SMILES) | ThT pH 4.0 lag time (physical stability in fibrillogenesis assay)
CC[C@H](C)[C@H](NC(=O)[C@@H]1CCCN1C(=O)CNC(=O)[C@H](Cc1ccccc1)NC(=O)[C@H](CC(N)=O)NC(=O)[C@H](CC(N)=O)NC(=O)[C@H](CO)NC(=O)[C@H](CO)NC(=O)[C@H](Cc1c[nH]cn1)NC(=O)[C@H](Cc1cnc[nH]1)NC(=O)[C@H](CC(C)C)NC(=O)[C@H](Cc1ccccc1)NC(=O)[C@H](CCC(=O)O)NC(=O)[C@H](C)NC(=O)[C@H](CC(C)C)NC(=O)[C@H](CCCNC(=N)N)NC(=O)[C@H](CCC(N)=O)NC(=O)[C@@H](NC(=O)[C@H](C)NC(=O)[C@@H]1CSSC[C@H](NC(=O)[C@H](CCCCN)NC(=O)CC[C@H](NC(=O)CCCCCCCCCCCCCCCCCCC(=O)O)C(=O)O)C(=O)N[C@@H](CC(N)=O)C(=O)N[C@@H]([C@@H](C)O)C(=O)N[C@@H](C)C(=O)N[C@@H]([C@@H](C)O)C(=O)N1)[C@@H](C)O)C(=O)N[C@@H](CC(C)C)C(=O)N1CCC[C@H]1C(=O)N1CCC[C@H]1C(=O)N[C@H](C(=O)N[C@@H](CC(N)=O)C(=O)N[C@H](C(=O)NCC(=O)N[C@@H](CO)C(=O)N[C@@H](CC(N)=O)C(=O)N[C@H](C(=O)N1CCC[C@H]1C(N)=O)[C@@H](C)O)C(C)C)[C@@H](C)O [Example 52, N-alpha-[(S)-4-Carboxy-4-(19-carboxynonadecanoylamino)butyryl]-[Glu14,His17,Pro37]-pramlintide] ({C20 diacid-γGlu}-KCNTATCATQRLAEFLHHSSNNFGPILPPTNVGSNTP-NH2; disulfide 2-7) | >45 h
CC[C@H](C)[C@H](NC(=O)[C@@H]1CCCN1C(=O)CNC(=O)[C@H](Cc1ccccc1)NC(=O)[C@H](CO)NC(=O)[C@H](CO)NC(=O)[C@H](CO)NC(=O)[C@H](CO)NC(=O)[C@H](CCCNC(=N)N)NC(=O)[C@@H](NC(=O)[C@H](CC(C)C)NC(=O)[C@H](Cc1ccccc1)NC(=O)[C@H](CCC(=O)O)NC(=O)[C@H](C)NC(=O)[C@H](CC(C)C)NC(=O)[C@H](CCCNC(=N)N)NC(=O)[C@H](CCC(N)=O)NC(=O)[C@@H](NC(=O)[C@H](C)NC(=O)[C@@H]1CSSC[C@H](NC(=O)[C@H](CCCCN)NC(=O)CC[C@H](NC(=O)CCCCCCCCCCCCCCCCCCC(=O)O)C(=O)O)C(=O)N[C@@H](CC(N)=O)C(=O)N[C@@H]([C@@H](C)O)C(=O)N[C@@H](C)C(=O)N[C@@H]([C@@H](C)O)C(=O)N1)[C@@H](C)O)C(C)C)C(=O)N[C@@H](CC(C)C)C(=O)N[C@@H](CO)C(=O)N[C@@H](CO)C(=O)N[C@H](C(=O)N[C@@H](CC(=O)O)C(=O)N[C@H](C(=O)NCC(=O)N[C@@H](CO)C(=O)N[C@@H](CC(=O)O)C(=O)N[C@H](C(=O)N1CCC[C@H]1C(N)=O)[C@@H](C)O)C(C)C)[C@@H](C)O [Example 170, N-alpha-[(S)-4-Carboxy-4-(19-carboxynonadecanoylamino)butyryl]-[Glu14,Arg18,Ser21,Ser22,Ser28,Ser29,Asp31,Asp35,Pro37]-pramlintide] ({C20 diacid-γGlu}-KCNTATCATQRLAEFLVRSSSSFGPILSSTDVGSDTP-NH2; disulfide 2-7) | >45 h

Same assay, conditions: pH 4.0, ThT fibrillation assay

Structure (SMILES) | ThT pH 4.0 lag time
CC[C@H](C)[C@H](NC(=O)[C@@H]1CCCN1C(=O)CNC(=O)[C@H](Cc1ccccc1)NC(=O)[C@H](CO)NC(=O)[C@H](CO)NC(=O)[C@H](CO)NC(=O)[C@H](CO)NC(=O)[C@H](CCCNC(=N)N)NC(=O)[C@@H](NC(=O)[C@H](CC(C)C)NC(=O)[C@H](Cc1ccccc1)NC(=O)[C@H](CCC(=O)O)NC(=O)[C@H](C)NC(=O)[C@H](CC(C)C)NC(=O)[C@H](CCCNC(=N)N)NC(=O)[C@H](CCC(N)=O)NC(=O)[C@@H](NC(=O)[C@H](C)NC(=O)[C@@H]1CSSC[C@H](NC(=O)[C@H](CCCCN)NC(=O)CC[C@H](NC(=O)CCCCCCCCCCCCCCCCCCC(=O)O)C(=O)O)C(=O)N[C@@H](CC(N)=O)C(=O)N[C@@H]([C@@H](C)O)C(=O)N[C@@H](C)C(=O)N[C@@H]([C@@H](C)O)C(=O)N1)[C@@H](C)O)C(C)C)C(=O)N[C@@H](CC(C)C)C(=O)N[C@@H](CO)C(=O)N[C@@H](CO)C(=O)N[C@H](C(=O)N[C@@H](CC(=O)O)C(=O)N[C@H](C(=O)NCC(=O)N[C@@H](CO)C(=O)N[C@@H](CC(=O)O)C(=O)N[C@H](C(=O)N1CCC[C@H]1C(N)=O)[C@@H](C)O)C(C)C)[C@@H](C)O [Example 170, N-alpha-[(S)-4-Carboxy-4-(19-carboxynonadecanoylamino)butyryl]-[Glu14,Arg18,Ser21,Ser22,Ser28,Ser29,Asp31,Asp35,Pro37]-pramlintide] ({C20 diacid-γGlu}-KCNTATCATQRLAEFLVRSSSSFGPILSSTDVGSDTP-NH2; disulfide 2-7) | >45 h
CC[C@H](C)[C@H](NC(=O)[C@@H]1CCCN1C(=O)CNC(=O)[C@H](Cc1ccccc1)NC(=O)[C@H](CC(N)=O)NC(=O)[C@H](CCC(N)=O)NC(=O)[C@H](CO)NC(=O)[C@H](CO)NC(=O)[C@H](Cc1c[nH]cn1)NC(=O)[C@H](Cc1c[nH]cn1)NC(=O)[C@H](CC(C)C)NC(=O)[C@H](Cc1ccccc1)NC(=O)[C@H](CCC(=O)O)NC(=O)[C@H](C)NC(=O)[C@H](CC(C)C)NC(=O)[C@H](CCCNC(=N)N)NC(=O)[C@H](CCC(N)=O)NC(=O)[C@@H](NC(=O)[C@H](C)NC(=O)[C@@H]1CSSC[C@H](NC(=O)CNC(=O)CC[C@H](NC(=O)CCCCCCCCCCCCCCCCCCC(=O)O)C(=O)O)C(=O)N[C@@H](CC(N)=O)C(=O)N[C@@H]([C@@H](C)O)C(=O)N[C@@H](C)C(=O)N[C@@H]([C@@H](C)O)C(=O)N1)[C@@H](C)O)C(=O)N[C@@H](CC(C)C)C(=O)N1CCC[C@H]1C(=O)N1CCC[C@H]1C(=O)N[C@H](C(=O)N[C@@H](CC(N)=O)C(=O)N[C@H](C(=O)NCC(=O)N[C@@H](CO)C(=O)N[C@@H](CCC(N)=O)C(=O)N[C@H](C(=O)N1CCC[C@H]1C(N)=O)[C@@H](C)O)C(C)C)[C@@H](C)O [Example 137, N-alpha-[(S)-4-Carboxy-4-(19-carboxynonadecanoylamino)butyryl]-[Gly1,Glu14,His17,Gln21,Gln35,Pro37]-pramlintide] ({C20 diacid-γGlu}-GCNTATCATQRLAEFLHHSSQNFGPILPPTNVGSQTP-NH2; disulfide 2-7 (inferred)) | 29 h
CC[C@H](C)[C@H](NC(=O)[C@@H]1CCCN1C(=O)CNC(=O)[C@H](Cc1ccccc1)NC(=O)[C@H](CC(N)=O)NC(=O)[C@H](CC(N)=O)NC(=O)[C@H](CO)NC(=O)[C@H](CO)NC(=O)[C@H](Cc1c[nH]cn1)NC(=O)[C@H](Cc1c[nH]cn1)NC(=O)[C@H](CC(C)C)NC(=O)[C@H](Cc1ccccc1)NC(=O)[C@H](CCC(=O)O)NC(=O)[C@H](C)NC(=O)[C@H](CC(C)C)NC(=O)[C@H](CCCNC(=N)N)NC(=O)[C@H](CCC(N)=O)NC(=O)[C@@H](NC(=O)[C@H](C)NC(=O)[C@@H]1CSSC[C@H](NC(=O)[C@H](CCCCN)NC(=O)[C@H](Cc2c[nH]cn2)NC(=O)[C@H](Cc2c[nH]cn2)NC(=O)CC[C@H](NC(=O)CCCCCCCCCCCCCCCCCCC(=O)O)C(=O)O)C(=O)N[C@@H](CC(N)=O)C(=O)N[C@@H]([C@@H](C)O)C(=O)N[C@@H](C)C(=O)N[C@@H]([C@@H](C)O)C(=O)N1)[C@@H](C)O)C(=O)N[C@@H](CC(C)C)C(=O)N1CCC[C@H]1C(=O)N1CCC[C@H]1C(=O)N[C@H](C(=O)N[C@@H](CC(N)=O)C(=O)N[C@H](C(=O)NCC(=O)N[C@@H](CO)C(=O)N[C@@H](Cc1c[nH]cn1)C(=O)N[C@H](C(=O)N[C@@H](Cc1ccc(O)cc1)C(N)=O)[C@@H](C)O)C(C)C)[C@@H](C)O [Example 67, N-alpha-[(S)-4-Carboxy-4-(19-carboxynonadecanoylamino)butyryl]-His-His-[Glu14,His17,His35]-pramlintide] ({C20 diacid-γGlu}-HHKCNTATCATQRLAEFLHHSSNNFGPILPPTNVGSHTY-NH2; disulfide 4-9 (inferred)) | >45 h
CC[C@H](C)[C@H](NC(=O)[C@@H]1CCCN1C(=O)CNC(=O)[C@H](Cc1ccccc1)NC(=O)[C@H](CC(N)=O)NC(=O)[C@H](CC(N)=O)NC(=O)[C@H](CO)NC(=O)[C@H](CO)NC(=O)[C@H](Cc1c[nH]cn1)NC(=O)[C@H](CCCNC(=N)N)NC(=O)[C@H](CC(C)C)NC(=O)[C@H](Cc1ccccc1)NC(=O)[C@H](CCC(=O)O)NC(=O)[C@H](C)NC(=O)[C@H](CC(C)C)NC(=O)[C@H](CCCNC(=N)N)NC(=O)[C@H](CCC(N)=O)NC(=O)[C@@H](NC(=O)[C@H](C)NC(=O)[C@@H]1CSSC[C@H](NC(=O)[C@H](CCCNC(=N)N)NC(=O)[C@H](CCC(=O)O)NC(=O)CC[C@H](NC(=O)CCCCCCCCCCCCCCCCCCC(=O)O)C(=O)O)C(=O)N[C@@H](CC(N)=O)C(=O)N[C@@H]([C@@H](C)O)C(=O)N[C@@H](C)C(=O)N[C@@H]([C@@H](C)O)C(=O)N1)[C@@H](C)O)C(=O)N[C@@H](CC(C)C)C(=O)N1CCC[C@H]1C(=O)N1CCC[C@H]1C(=O)N[C@H](C(=O)N[C@@H](CC(N)=O)C(=O)N[C@H](C(=O)NCC(=O)N[C@@H](CO)C(=O)N[C@@H](CC(N)=O)C(=O)N[C@H](C(=O)N1CCC[C@H]1C(N)=O)[C@@H](C)O)C(C)C)[C@@H](C)O [compound 156] ({C20 diacid-γGlu}-ERCNTATCATQRLAEFLRHSSNNFGPILPPTNVGSNTP-NH2; disulfide 3-8 (inferred)) | >45 h
CC[C@H](C)[C@H](NC(=O)[C@@H]1CCCN1C(=O)CNC(=O)[C@H](Cc1ccccc1)NC(=O)[C@H](CC(N)=O)NC(=O)[C@H](CC(N)=O)NC(=O)[C@H](CO)NC(=O)[C@H](CO)NC(=O)[C@H](Cc1c[nH]cn1)NC(=O)[C@H](Cc1c[nH]cn1)NC(=O)[C@H](CC(C)C)NC(=O)[C@H](Cc1ccccc1)NC(=O)[C@H](CCC(=O)O)NC(=O)[C@H](C)NC(=O)[C@H](CC(C)C)NC(=O)[C@H](CCCNC(=N)N)NC(=O)[C@H](CCC(N)=O)NC(=O)[C@@H](NC(=O)[C@H](C)NC(=O)[C@@H]1CSSC[C@H](NC(=O)CNC(=O)CC[C@H](NC(=O)CCCCCCCCCCCCCCCCCCC(=O)O)C(=O)O)C(=O)N[C@@H](CC(N)=O)C(=O)N[C@@H]([C@@H](C)O)C(=O)N[C@@H](C)C(=O)N[C@@H]([C@@H](C)O)C(=O)N1)[C@@H](C)O)C(=O)N[C@@H](CC(C)C)C(=O)N1CCC[C@H]1C(=O)N1CCC[C@H]1C(=O)N[C@H](C(=O)N[C@@H](CC(N)=O)C(=O)N[C@H](C(=O)NCC(=O)N[C@@H](CO)C(=O)N[C@@H](Cc1c[nH]cn1)C(=O)N[C@H](C(=O)N[C@@H](Cc1ccc(O)cc1)C(N)=O)[C@@H](C)O)C(C)C)[C@@H](C)O [Example 105, N-alpha-[(S)-4-Carboxy-4-(19-carboxynonadecanoylamino)butyryl]-[Gly1,Glu14,His17,His35]-pramlintide] ({C20 diacid-γGlu}-GCNTATCATQRLAEFLHHSSNNFGPILPPTNVGSHTY-NH2; disulfide 2-7) | 26 h
